3 compounds from patent EP0240257A2, “Compounds and pharmaceutical preparations having calcium - regulatory activity” (University of Lancaster, priority 1986, dated 1987) can be followed below.

“Also recorded” adds a separate entry of the source.

Data set [1] has as its system rat urinary bladder detrusor muscle strips. Kind of data set: Field stimulation contractions of isolated smooth muscle (organ bath tension recording). How it is done: (§1) Smooth muscle preparations were obtained from male Wistar strain albino rats. The animals were killed by a blow to the head and smooth muscle strips (about 2 mm x 10 mm) were dissected from the bladder. The vasa deferentia were divided into two portions and longitudinally bisected. Tests on cardiac muscle were carried out using isolated cannulated flounder heart. All mammalian preparations were maintained in Krebs solution containing NaCl : 120.7 mM; NaH₂PO₄ : 1.3 mM; KCl : 5.9 mM; NaHCO₃ : 15.5 mM and CaCl₂ : 2.5mM; glucose : 11.5 mM. MgCl₂ : 1.2mM The Krebs solution was adjusted to pH 7.3 with HCl and was continuously aerated and maintained at 37°C.
(§2) To record tension the muscle preparations were mounted vertically in jacketed organ baths which were continuously aerated and whose contents could be rapidly changed. The preparations were attached to a set of Grass Instruments ST 0.3C force displacement transducers held in adjustable rackwork, and the racks were adjusted to put slight tension on the preparations. After mounting in the perfusion baths the preparations were allowed to equilibrate for 1 hour, the bath saline being changed every 15 min. The force displacement transducer outputs were connected to a four-channel Grass model 79 polygraph. The stimulation electrode terminals were attached to Grass SIU 5 isolation units connected to two Grass S48 stimulators driven in tandem. Stimulation train parameters varied in different preparations but a common regime consisted of a 200 msec train of pulses at 50 Hz, each pulse being 2-5 msec at 40-50 V. Trains were automatically repeated usually at 100 or 50 sec intervals. The techniques have been described in detail by Huddart and Butler (1986) in Gen. Pharmac., 17, 695-703 (1986).
(§3) The smooth muscle preparations were threaded through two silver/silver chloride ring electrodes (4 mm inside diameter), mounted 10 mm apart on a perspex rod. The bottom ligature was passed through a fine hole in a nylon screw at the base of the rod. By turning the screw the muscle strip could be drawn exactly through the electrode rings. The electrode assemblies were then placed in the jacketed organ baths as described above and the upper muscle ligatures attached to the transducer to measure tension. Both the vas deferens and the bladder smooth muscles responded to the field stimulation with consistent repeatable contractions. It is believed that these contractions are calcium-dependent via the operation of slow calcium channels. The effect of ABA on these contractions was tested by adding a concentrated solution thereof to the perfusion solution to give an overall ABA concentration of 10⁻⁶M. In the two vas deferens studies the slow calcium channel blocker nifedipine was then added in the same manner to produce a concentration of 10⁻⁷M. […]

Data set [2] concerns rat vas deferens smooth muscle. The description is as above. How it is done:
as §1, §2, §3

Data set [3] concerns rat urinary bladder detrusor muscle strips. Briefly: High-K (60 mM K+) contracture response of K+-depolarized muscle. The protocol:
as §1, §2
(A) Rat urinary bladder detrusor muscle strips were tested in a high-K saline prepared by substitution of sodium compounds in the Krebs' solution by equimolar amounts of potassium compounds to give a K+ concentration of 60 mM. At this level of depolarization it is believed that the fast calcium channels are voltage-inactivated. […]

The test system of the next data set is flounder heart. Kind of data set: Contractile force of isolated cannulated heart. How it is done:
as §1
The flounder heart was maintained at 10°C in flounder saline containing NaCl : 116.7 mM, CaCl₂ : 1.72 mM, Na₂SO₄ : 18.6 mM, TES : 2.5 mM and KCl : 2.71 mM, glucose : 5.0 mM MgSO₄ : 0.67 mM, at pH 7.65.
as §2
The contractile force in flounder heart was measured before and after addition of ABA to the perfusion solution.

The subject of data set [4] is rat vas deferens smooth muscle (partly depolarized). Kind of data set: K+-induced (20 mM K) contracture tension, dose-response comparison. The settings on record: for activity in enhancing K+-induced contracture tension: parallel trials of ABA and BAY K 8644, result in words. How it is done: Smooth muscle preparations were obtained from male Wistar strain albino rats. The animals were killed by a blow to the head and smooth muscle strips (about 2 mm x 10 mm) were dissected from the bladder. The vasa deferentia were divided into two portions and longitudinally bisected. Tests on cardiac muscle were carried out using isolated cannulated flounder heart. […] MgCl₂ : 1.2mM The Krebs solution was adjusted to pH 7.3 with HCl and was continuously aerated and maintained at 37°C.
as §2, with “intervals.” for “intervals. The techniques have been described in detail by Huddart and Butler (1986) in Gen. Pharmac., 17, 695-703 (1986).”

Data set [5] deals with microsomal calcium efflux. Briefly: Potassium-stimulated microsomal calcium efflux. Type of data set: biochemical.
The nature of data set [6]: Field stimulation response (more recent findings, tissue not stated). The following applies: no tissue or concentration printed.
[7] abbreviates: Rattus norvegicus, read-out: enhanced field stimulation responses.

For `CC1=CC(=O)CC(C)(C)C1(O)/C=C/C(C)=C\C(=O)O` (racemic) [ABA, (1ʹS,2Z,4E)-5-(1ʹ-hydroxy-2ʹ,6ʹ,6ʹ-trimethyl-4ʹ-oxocyclohex-2ʹ-enyl)-3-methyl-penta-2,4-dienoic acid], the activation at 1 µM in data set [1] (setting [7]) is roughly 25%; in data set [2] (setting [7]), roughly 25%; in data set [3] (Rattus norvegicus, 0.25 h, ABA 10⁻⁶ M added 15 minutes before the high-K solution (K+ 60 mM), read-out: enhancement of contracture tension) it was 50%. The “tonic phase of the response” value in data set [3] (ABA 10⁻⁶ M in high-K saline, added just after the initial phasic response) was “enhanced; also recorded: considerable enhancement”. Moreover, the contracture tension entry in data set [3] (ABA 10⁻⁶M, K+-depolarized muscle, result in words) is reported as “considerably augmented”. Also, the contractile force result in the data set with flounder heart (ABA 10⁻⁶M in perfusion solution, 10°C) was “augment”. Also, in the data set on flounder heart (prolonged ABA exposure (15 minutes)), the cardiac arrhythmia entry was “pronounced cardiac arrhythmia”. In addition, in data set [4], the “activity in enhancing K+-induced contracture tension” value was “identical activity”. In data set [4] (rat vas deferens, partly depolarized, read-out: threshold for 100% enhancement of K contracture tension), the EC (100% enhancement) was roughly 0.005 µM. Further, the “potassium-stimulated microsomal calcium efflux” value in data set [5] was “enhances”. In addition, the field stimulation response result in data set [6] is given as “enhances”.

As for `COC(=O)C1=C(C)NC(C)=C([N+](=O)[O-])C1c1ccccc1C(F)(F)F` (stereo not shown) [BAY K 8644, methyl 1,4-dihydro-2,6-dimethyl-5-nitro-4-[2-(trifluoromethyl)-phenyl]-3-pyridinecarboxylate, reference compound], the “activity in enhancing K+-induced contracture tension” value in data set [4] is on record as “identical activity”. In addition, in data set [4] (rat vas deferens), the “threshold / potency relative to ABA” value was “roughly one order of magnitude greater than ABA”.

On to `COC(=O)C1=C(C)NC(C)=C(C(=O)OC)C1c1ccccc1[N+](=O)[O-]` [nifedipine, reference compound], for which the “inhibition of the ABA augmentation of the field stimulation response (and of the response itself)” value in data set [1] (nifedipine after ABA 10⁻⁶M, bladder) is “inhibited”; in data set [2] (nifedipine 10⁻⁷M added after ABA 10⁻⁶M, vas deferens) it was “inhibited”. The “inhibition of the ABA action on contractile force” value with flounder heart (nifedipine after ABA 10⁻⁶M) is reported as “inhibited”.
